Data: ChEMBL document CHEMBL1134879, “3D-QSAR studies on 4-hydroxyphenylpyruvate dioxygenase inhibitors by comparative molecular field analysis (CoMFA)” (Bioorg Med Chem Lett, 2002)

Legend:
[1] = target: T1, 4-hydroxyphenylpyruvate dioxygenase (Sus scrofa, UniProt Q02110); experiment: Concentration required to achieve 50% inhibition against 4-Hydroxyphenylpyruvate dioxygenase (HPPD) from pig liver; (observed value)
[2] = target: T1, 4-hydroxyphenylpyruvate dioxygenase; experiment: Concentration required to achieve 50% inhibition against 4-Hydroxyphenylpyruvate dioxygenase (HPPD) from pig liver
[3] = target: T1, 4-hydroxyphenylpyruvate dioxygenase; experiment: Concentration required to achieve 50% inhibition against 4-hydroxyphenylpyruvate dioxygenase from pig liver; (observed value)
[4] = target: T1, 4-hydroxyphenylpyruvate dioxygenase; experiment: Concentration required to achieve 50% inhibition against 4-hydroxyphenylpyruvate dioxygenase from pig liver

T1 sequence (Q02110 whole entry): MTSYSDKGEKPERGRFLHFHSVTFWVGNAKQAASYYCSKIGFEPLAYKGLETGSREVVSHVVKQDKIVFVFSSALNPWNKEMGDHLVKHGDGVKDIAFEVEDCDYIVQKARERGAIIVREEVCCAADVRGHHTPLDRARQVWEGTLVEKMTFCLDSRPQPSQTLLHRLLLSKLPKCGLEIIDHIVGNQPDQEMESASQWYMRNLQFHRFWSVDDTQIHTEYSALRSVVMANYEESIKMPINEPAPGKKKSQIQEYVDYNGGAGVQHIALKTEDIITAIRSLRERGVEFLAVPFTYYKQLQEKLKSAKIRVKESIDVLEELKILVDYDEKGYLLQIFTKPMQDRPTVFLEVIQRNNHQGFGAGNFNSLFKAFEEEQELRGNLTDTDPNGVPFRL

Row | SMILES | IC50 [1] [nM] | IC50 [2] [nM] | IC50 [3] [nM] | IC50 [4] [nM]
1 | O=C1CCCC(=O)C1=C(O)c1ccccc1Br | 562 | 560 |  | 
2 | CCOC(=O)C1CC(=O)C(C(=O)C2CC2)=C(OC(=O)C2CC2)C1 (stereo not drawn) | 39.8 | 40 |  | 
3 | CCC(=O)C1=C(O)CCCC1=O |  |  | 17800 | 17800
4 | Cc1ccccc1C(O)=C1C(=O)CCCC1=O | 3720 | 3750 |  | 
5 | O=C1CCCC(=O)C1=C(O)c1ccccc1I | 759 | 760 |  | 
6 | O=C1CCCC(=O)C1=C(O)c1ccccc1Cl | 501 | 500 |  | 
7 | CC(C)C(=O)C1=C(O)CCCC1=O |  |  | 93300 | 93300
8 | O=C1CCCC(O)=C1C(=O)C1CCCCC1 |  |  | 363000 | 365000
9 | CC(=O)C1=C(O)CCCC1=O |  |  | 11200 | 11200
10 | CS(=O)(=O)c1ccc(C(O)=C2C(=O)CCCC2=O)c(Cl)c1 |  | 50 |  | 
11 | O=C1CCCC(O)=C1C(=O)C1CC1 |  |  | 6030 | 6000
12 | COc1ccccc1C(O)=C1C(=O)CCCC1=O | 11700 | 11700 |  | 
13 | O=C1CCCC(=O)C1=C(O)c1ccccc1C(F)(F)F | 251 | 250 |  | 
14 | O=C1CCCC(=O)C1=C(O)c1ccccc1 | 11200 | 11200 |  | 

Now from value to molecule:

Row | IC50 [1] [nM] | IC50 [2] [nM] | IC50 [3] [nM] | IC50 [4] [nM] | SMILES
15 | 89.1 | 90 |  |  | CCOC(=O)C1CC(=O)C=C(OC(=O)C2CC2)C1 (stereo not drawn)
16 | 30200 | 30000 |  |  | COC1=CC(=O)C(OC(=O)C2CC2)=CC1=O
17 | 110 | 110 |  |  | O=C(Oc1cc(=O)oc2ccccc12)C1CC1
18 | 20 | 20 |  |  | O=C1CCCC(OC(=O)C2CC2)=C1Cl
19 | 331 | 330 |  |  | CC1(C)CC(=O)C=C(OC(=O)C2CC2)C1
20 | 70.8 | 70 |  |  | O=C1C=C(OC(=O)C2CC2)CC1
21 | 251 | 250 |  |  | O=C(Oc1cccc(O)c1)C1CC1
22 | 30.2 | 30 |  |  | O=C1CCCC(OC(=O)C2CC2)=C1Br
